Assay results reported in patent US9643930B2, “Substituted indazole derivatives as in vitro MAO-B inhibitors” (“NTZ LAB” LTD., priority 2013, dated 2017).
Read-outs that look alike come from different tables or passages of the source.

How the values were obtained:
[1] = molecular target: T1, human MAO-A (Homo sapiens, UniProt P21397); test: Human MAO-A assay (recombinant enzyme, Amplex Red fluorescence); settings: for inhibition at 10 µM: read-out: human MAO-A % inhibition at 10 μM
T1 sequence (P21397 1-527): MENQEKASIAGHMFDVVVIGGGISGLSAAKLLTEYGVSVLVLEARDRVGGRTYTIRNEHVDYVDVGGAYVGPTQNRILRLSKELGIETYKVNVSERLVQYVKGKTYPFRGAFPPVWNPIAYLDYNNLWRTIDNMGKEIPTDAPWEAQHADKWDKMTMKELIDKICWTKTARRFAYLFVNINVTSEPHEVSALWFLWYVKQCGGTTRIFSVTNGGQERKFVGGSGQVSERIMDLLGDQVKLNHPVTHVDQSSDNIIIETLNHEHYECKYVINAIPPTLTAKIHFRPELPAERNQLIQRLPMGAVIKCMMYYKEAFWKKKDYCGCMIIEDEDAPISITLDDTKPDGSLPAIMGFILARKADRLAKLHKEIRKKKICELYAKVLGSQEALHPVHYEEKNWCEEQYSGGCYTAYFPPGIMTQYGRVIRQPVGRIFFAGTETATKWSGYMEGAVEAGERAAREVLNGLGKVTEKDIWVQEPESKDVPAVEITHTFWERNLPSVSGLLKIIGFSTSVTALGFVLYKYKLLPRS

[2] = molecular target: T2, rat MAO-A (Rattus norvegicus, UniProt P21396); test: Rat MAO-A assay (Amplex Red fluorescence, rat liver mitochondria pre-treated with deprenyl); format: biochemical; settings: for inhibition at 10 µM: read-out: rat MAO-A (rat liver mitochondria) % inhibition at 10 μM
T2 construct: from tissue; host or cells: rat liver mitochondria (male Sprague-Dawley rats)
T2 sequence (P21396 1-526): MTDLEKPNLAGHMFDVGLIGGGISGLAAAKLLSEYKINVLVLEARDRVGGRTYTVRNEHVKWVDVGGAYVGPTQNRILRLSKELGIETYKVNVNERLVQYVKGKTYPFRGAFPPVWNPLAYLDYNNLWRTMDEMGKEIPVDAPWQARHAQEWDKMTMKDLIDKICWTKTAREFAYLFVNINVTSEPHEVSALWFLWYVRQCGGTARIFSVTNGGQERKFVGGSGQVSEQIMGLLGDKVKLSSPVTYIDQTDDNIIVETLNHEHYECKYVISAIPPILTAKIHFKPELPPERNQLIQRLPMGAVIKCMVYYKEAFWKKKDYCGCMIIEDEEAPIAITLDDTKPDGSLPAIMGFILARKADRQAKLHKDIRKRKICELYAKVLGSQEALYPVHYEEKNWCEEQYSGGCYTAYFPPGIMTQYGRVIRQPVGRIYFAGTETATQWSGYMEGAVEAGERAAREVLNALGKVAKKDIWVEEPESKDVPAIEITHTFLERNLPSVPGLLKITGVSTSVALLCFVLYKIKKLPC
Procedure: (§1) Male Sprague-Dawley (Harlan Sprague Dawley, Dublin, Va., US) rats (250-300 g) were sacrificed under light anesthesia and their livers were dissected. […] After homogenization, the volume is adjusted to 100 mL with the same buffer. After a low speed centrifugation (10 min at 600 g; 4° C.), the supernatant is further centrifuged at 15,000 rpm for 5 min at +4° C. The resulting pellet was resuspended in 2.0 mL of a 50 mM sodium/phosphate buffer (pH 7.4) and stored at −80° C. in aliquots of 1.0 mL each until further use.
(§2) The Amplex® Red reagent was prepared as recommended in the kit from Invitrogen (A12214). […] Clorgyline (1.0 μM) from Sigma Aldrich (M3778) was used to determine non-MAO-A enzyme activity and concentration-response curves of clorgyline serve as positive control.

[3] = molecular target: T3, rat MAO-B (Rattus norvegicus, UniProt P19643); test: Rat MAO-B assay (Amplex Red fluorescence, rat liver mitochondria pre-treated with clorgyline 30 nM); format: biochemical
T3 construct: from tissue; host or cells: rat liver mitochondria (male Sprague-Dawley rats)
T3 sequence (P19643 1-520): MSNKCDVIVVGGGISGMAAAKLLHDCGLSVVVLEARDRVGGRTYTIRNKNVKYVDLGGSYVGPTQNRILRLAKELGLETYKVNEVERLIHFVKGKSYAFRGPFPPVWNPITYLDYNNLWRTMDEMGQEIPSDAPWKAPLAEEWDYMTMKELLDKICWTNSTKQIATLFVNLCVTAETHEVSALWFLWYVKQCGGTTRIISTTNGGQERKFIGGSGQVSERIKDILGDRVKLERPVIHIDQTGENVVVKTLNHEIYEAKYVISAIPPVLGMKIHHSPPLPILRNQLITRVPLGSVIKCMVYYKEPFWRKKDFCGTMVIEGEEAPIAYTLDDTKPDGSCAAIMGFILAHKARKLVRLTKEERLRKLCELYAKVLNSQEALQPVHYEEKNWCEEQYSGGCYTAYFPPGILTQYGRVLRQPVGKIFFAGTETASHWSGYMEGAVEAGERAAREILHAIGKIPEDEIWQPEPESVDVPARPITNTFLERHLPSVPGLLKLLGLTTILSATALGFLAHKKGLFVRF
Procedure: as §1, §2

[4] = molecular target: T4, human MAO-B (Homo sapiens, UniProt P27338); test: Human MAO-B assay (recombinant enzyme, Amplex Red fluorescence); format: biochemical; set-up: purchased Sigma-Aldrich M7441; host or cells: baculovirus-infected insect cells (microsomal product); settings: p-tyramine 150 μM
T4 sequence (P27338 1-520): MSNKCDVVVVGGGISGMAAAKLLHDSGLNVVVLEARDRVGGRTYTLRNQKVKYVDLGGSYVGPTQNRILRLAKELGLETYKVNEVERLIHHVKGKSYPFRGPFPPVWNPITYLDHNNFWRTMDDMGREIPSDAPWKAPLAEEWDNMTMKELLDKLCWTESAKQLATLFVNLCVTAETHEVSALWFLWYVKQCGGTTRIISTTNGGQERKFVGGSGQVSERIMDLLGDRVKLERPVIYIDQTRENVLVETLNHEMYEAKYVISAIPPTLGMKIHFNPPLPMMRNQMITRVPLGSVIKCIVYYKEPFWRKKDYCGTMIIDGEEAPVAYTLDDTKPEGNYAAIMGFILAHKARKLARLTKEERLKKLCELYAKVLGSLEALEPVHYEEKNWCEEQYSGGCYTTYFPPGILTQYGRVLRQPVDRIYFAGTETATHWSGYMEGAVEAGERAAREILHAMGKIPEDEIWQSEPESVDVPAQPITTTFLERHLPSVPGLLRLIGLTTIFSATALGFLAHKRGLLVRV

[5] = at 10 μM, rat liver mitochondria
[6] = rat liver mitochondria pre-treated with clorgyline 30 nM, read-out: rat MAO-B (rat liver mitochondria) IC50
[7] = rat liver mitochondria, substrate p-tyramine, read-out: rat MAO-A (rat liver mitochondria) IC50
[8] = read-out: human MAO-A IC50, recombinant human enzyme, p-tyramine 150 μM

O=C(Nc1ccc(Cl)c(Cl)c1)c1ccc2[nH]ncc2c1 [Example 1]
inhibition at 10 µM [1]: 46% | inhibition at 10 µM [2, 5]: 42%

O=C(Nc1ccc(Cl)c(Cl)c1)c1ccc2[nH]ccc2c1 [Example 2, N-(3,4-dichlorophenyl)-1H-indole-5-carboxamide]
inhibition at 10 µM [1]: 88% | inhibition at 10 µM [2, 5]: 70% | melting point: 233.8 to 234.8 °C

COc1ccc(NC(=O)c2ccc3[nH]ncc3c2)cc1Cl [Example 3, N-(3-chloro-4-methoxy)-1H-indazole-5-carboxamide]
IC50 [1]: > 10000 nM | inhibition at 10 µM [1]: 30% | IC50 [3, 6]: 21.9 ± 3.4 nM | IC50 [2, 7]: > 10000 nM | inhibition at 10 µM [2, 5]: 13% | IC50 [4]: 3.42 ± 0.28 nM | melting point: 276.2 to 277.8 °C

COc1cc(NC(=O)c2ccc3[nH]ncc3c2)ccc1Cl [Example 4, N-(4-chloro-3-methoxy)-1H-indazole-5-carboxamide]
inhibition at 10 µM [1]: 62% | IC50 [1, 8]: 8790 ± 200 nM | IC50 [3, 6]: 43.1 ± 4.2 nM | IC50 [2, 7]: > 10000 nM | inhibition at 10 µM [2, 5]: 24% | IC50 [4]: 4.36 ± 0.08 nM | melting point: 279.6 to 281.6 °C

O=C(Nc1ccc(O)c(Cl)c1)c1ccc2[nH]ncc2c1 [Example 5, N-(3-chloro-4-hydroxyphenyl)-1H-indazole-5-carboxamide]
IC50 [1]: > 10000 nM | inhibition at 10 µM [1]: 33% | IC50 [3, 6]: 941 ± 51 nM | IC50 [2, 7]: < 10000 nM | inhibition at 10 µM [2, 5]: 60% | IC50 [4]: 123 ± 16 nM | melting point: 272.2 to 273.4 °C

O=C(Nc1cc(Cl)cc(Cl)c1)c1ccc2[nH]ncc2c1 [Example 8, N-(3,5-dichlorophenyl)-1H-indazole-5-carboxamide]
IC50 [1]: < 10000 nM | inhibition at 10 µM [1]: 65% | inhibition at 10 µM [2, 5]: 5% | melting point: 302.7 to 304.8 °C

O=C(Nc1ccc(F)c(Cl)c1)c1ccc2[nH]ncc2c1 [Example 9, N-(3-chloro-4-fluorophenyl)-1H-indazole-5-carboxamide]
IC50 [1]: > 10000 nM | inhibition at 10 µM [1]: 40% | IC50 [2, 7]: > 10000 nM | inhibition at 10 µM [2, 5]: 17%

O=C(Nc1ccc(Cl)c(F)c1)c1ccc2[nH]ncc2c1 [Example 10, N-(4-chloro-3-fluorophenyl)-1H-indazole-5-carboxamide]
IC50 [1]: < 10000 nM | inhibition at 10 µM [1]: 55% | IC50 [3, 6]: 2.61 ± 0.68 nM | IC50 [2, 7]: > 10000 nM | inhibition at 10 µM [2, 5]: 30% | IC50 [4]: 0.668 ± 0.053 nM

O=C(Nc1ccc(F)c(F)c1)c1ccc2[nH]ncc2c1 [Example 11, N-(3,4-difluorophenyl)-1H-indazole-5-carboxamide]
IC50 [1]: > 10000 nM | inhibition at 10 µM [1]: 36% | IC50 [3, 6]: 8.89 ± 0.05 nM | IC50 [2, 7]: > 10000 nM | inhibition at 10 µM [2, 5]: 13% | IC50 [4]: 1.59 ± 0.16 nM

O=C(Nc1cnc(Cl)c(Cl)c1)c1ccc2[nH]ncc2c1 [Example 12, N-(5,6-dichloropyridin-3-yl)-1H-indazole-5-carboxamide]
IC50 [1]: < 10000 nM | inhibition at 10 µM [1]: 52% | IC50 [3, 6]: 26.6 ± 1.5 nM | IC50 [2, 7]: < 10000 nM | inhibition at 10 µM [2, 5]: 59% | IC50 [4]: 5.42 ± 0.2 nM

Cn1cc2cc(C(=O)Nc3ccc(Cl)c(Cl)c3)ccc2n1 [Example 14, N-(3,4-dichlorophenyl)-2-methyl-2H-indazole-5-carboxamide]
IC50 [3, 6]: 22.5 ± 0.6 nM | IC50 [4]: 1.44 ± 0.41 nM

Cn1ccc2cc(C(=O)Nc3ccc(Cl)c(Cl)c3)ccc21 [Example 16, N-(3,4-dichlorophenyl)-1-methyl-1H-indole-5-carboxamide]
inhibition at 10 µM [1]: 13% | inhibition at 10 µM [2, 5]: 3% | melting point: 178.9 to 180.3 °C

Cn1ncc2cc(C(=O)Nc3ccc(F)c(Cl)c3)ccc21 [Example 17, N-(3-chloro-4-fluorophenyl)-1-methyl-1H-indazole-5-carboxamide]
IC50 [3, 6]: 1.36 ± 0.13 nM | inhibition at 10 µM [2]: 29%

Cn1cc2cc(C(=O)Nc3ccc(F)c(Cl)c3)ccc2n1 [Example 18, N-(3-chloro-4-fluorophenyl)-2-methyl-2H-indazole-5-carboxamide]
inhibition at 10 µM [1]: 95% | IC50 [1, 8]: 562 ± 62 nM | IC50 [3, 6]: 20.3 ± 3 nM | IC50 [2, 7]: 1690 ± 143 nM | inhibition at 10 µM [2, 5]: 90% | IC50 [4]: 8.08 ± 1.05 nM

Cn1ncc2cc(C(=O)Nc3ccc(F)c(F)c3)ccc21 [Example 19, N-(3,4-difluorophenyl)-1-methyl-1H-indazole-5-carboxamide]
IC50 [1]: > 10000 nM | inhibition at 10 µM [1]: 46% | IC50 [3, 6]: 5.65 ± 0.48 nM | IC50 [2, 7]: > 10000 nM | inhibition at 10 µM [2, 5]: 18% | IC50 [4]: 1.52 ± 0.18 nM

Cn1cc2cc(C(=O)Nc3ccc(F)c(F)c3)ccc2n1 [Example 20, N-(3,4-difluorophenyl)-2-methyl-2H-indazole-5-carboxamide]
IC50 [1, 8]: 764 ± 40 nM | IC50 [3, 6]: 221 ± 21 nM | IC50 [2, 7]: 1880 ± 93 nM | inhibition at 10 µM [2, 5]: 83% | IC50 [4]: 38.4 ± 1.8 nM

COCCn1ncc2cc(C(=O)Nc3ccc(Cl)c(Cl)c3)ccc21 [Example 21, N-(3,4-dichlorophenyl)-1-(2-methoxyethyl)-1H-indazole-5-carboxamide]
inhibition at 10 µM [1]: 81% | IC50 [2, 7]: < 10000 nM | inhibition at 10 µM [2, 5]: 57%

Clc1ccc(/N=C/c2ccc3[nH]ncc3c2)cc1Cl [Example 22, (E)-N-((1H-indazol-5-yl)methylene)-3,4-dichloroaniline]
inhibition at 10 µM [1]: 62% | inhibition at 10 µM [2, 5]: 43%

Fc1cc(/N=C/c2ccc3[nH]ncc3c2)ccc1Cl [Example 23, (E)-N-((1H-indazol-5-yl)methylene)-4-chloro-3-fluoroaniline]
IC50 [1]: > 10000 nM | inhibition at 10 µM [1]: 44% | IC50 [3]: 25.2 ± 0.11 nM | IC50 [2]: > 10000 nM | inhibition at 10 µM [2, 5]: 27% | IC50 [4]: 1.91 ± 0.27 nM

Fc1ccc(/N=C/c2ccc3[nH]ncc3c2)cc1Cl [Example 24, (E)-N-((1H-indazol-5-yl)methylene)-3-chloro-4-fluoroaniline]
IC50 [1]: < 10000 nM | inhibition at 10 µM [1]: 54% | IC50 [3]: 6.08 ± 0.52 nM | IC50 [2]: > 10000 nM | inhibition at 10 µM [2, 5]: 35% | IC50 [4]: 2.1 ± 0.3 nM

Clc1cc(/N=C/c2ccc3[nH]ncc3c2)cnc1Cl [Example 25, (E)-N-((1H-indazol-5-yl)methylene)-5,6-dichloropyridin-3-amine]
IC50 [1]: < 10000 nM | inhibition at 10 µM [1]: 67% | IC50 [3]: 1.48 ± 0.07 nM | IC50 [2]: > 10000 nM | inhibition at 10 µM [2, 5]: 45% | IC50 [4]: 0.474 ± 0.02 nM

Cn1ncc2cc(/C=N/c3ccc(Cl)c(Cl)c3)ccc21 [Example 26, (E)-3,4-dichloro-N-((1-methyl-1H-indazole-5-yl)methylene)aniline]
inhibition at 10 µM [1]: 57% | inhibition at 10 µM [2, 5]: 23%
